A short description of assay [1]: Cytotoxicity against human WS1 cells assessed as reduction in cell viability incubated for 48 hrs by Hoechst staining based assay. The settings on record: WS1, 48 h.
For assay [2], the system named is A549. Briefly: Cytotoxicity against human A549 cells assessed as reduction in cell viability incubated for 48 hrs by Hoechst staining based assay. The format is functional. The settings on record: A549, 48 h.
Assay [3] deals with Candida albicans. As to the kind of experiment: […] activity against Candida albicans ATCC 10231 assessed as reduction in fungal growth incubated for 24 hrs by microdilution method. It counts as functional. For orientation: Broth dilution looks for growth in wells or tubes with falling amounts of substance.
The subject of assay [4] is Staphylococcus aureus. Briefly: Antibacterial activity against Staphylococcus aureus ATCC 25923 assessed as reduction in bacterial growth incubated for 24 hrs by microdilution method. The format is functional.
Assay [5] has as its system DLD-1. Briefly: Cytotoxicity against human DLD-1 cells assessed as reduction in cell viability incubated for 48 hrs by Hoechst staining based assay. It counts as functional. The note with it: DLD-1, 48 h.

In brackets after ≈: the same amount, converted by molar mass. Bounds are passed on as bounds.

The IC50 is the midpoint of a concentration-inhibition curve. For orientation: MIC90 means an inhibitory concentration at the 90% level, which refers to growth in some studies and to a panel of isolates in others. Take `C[S+]([O-])/C=C/c1cc(=O)c2cc(O)ccc2o1` (racemic): the IC50 in assay [1] was 7500 nM; in assay [2], 10500 nM; in assay [5] it was above 10000 nM. Also, the MIC90 in assay [3] was above 100 µM; in assay [4], 24 µM (≈ 6.01 µg/mL).
On to `COc1ccc2oc(/C=C/[S+](C)[O-])cc(=O)c2c1` (racemic), for which the concentration for half-maximal inhibition (IC50) worked out at 1300 nM in assay [1], 1600 nM in assay [2] and 5700 nM in assay [5]. The MIC90 in assay [3] is above 100 µM; in assay [4], 6.1 µM (≈ 1.61 µg/mL).
Regarding `COc1ccc2c(=O)cc(/C=C/[S+](C)[O-])oc2c1` (racemic), the results for the concentration for half-maximal inhibition (IC50) in assay [1], in assay [2] and in assay [5] were 1800 nM, 2200 nM and 7800 nM, respectively. Also, the MIC90 was above 100 µM in assay [3] and 20 µM (≈ 5.29 µg/mL) in assay [4].
The like results for `C[S+]([O-])/C=C/c1cc(=O)c2ccccc2o1` (racemic) were, in that order, 2000 nM, 1900 nM, 8000 nM, above 100 µM and 9 µM (≈ 2.11 µg/mL).
The corresponding values for `CCCCC(=O)Oc1ccc2oc(/C=C/[S+](C)[O-])cc(=O)c2c1` (racemic) are 1800 nM, 2400 nM, 6700 nM, 47 µM (≈ 15.7 µg/mL) and 5.1 µM (≈ 1.71 µg/mL).
The corresponding values for `C[S+]([O-])/C=C/c1cc(=O)c2ccc3ccccc3c2o1` (racemic) are 1900 nM, 1400 nM, 7000 nM, above 100 µM and 4.8 µM (≈ 1.36 µg/mL).
`Cc1ccc2c(=O)cc(/C=C/[S+](C)[O-])oc2c1` (racemic): the IC50 in assay [1] worked out at 1900 nM; in assay [2], 2000 nM; in assay [5] it was 7000 nM. For the same compound, the MIC90 in assay [3] is above 100 µM; in assay [4], 10 µM (≈ 2.48 µg/mL).
For `C[S+]([O-])/C=C/c1cc(=O)c2cc(Cl)ccc2o1` (racemic), the IC50 in assay [1] is 1600 nM; in assay [2], 1700 nM; in assay [5] it was 6500 nM. Moreover, the MIC90 in assay [3] was above 100 µM; in assay [4] it was 2.7 µM (≈ 0.726 µg/mL).
The like results for `CC(C)C(=O)Oc1ccc2oc(/C=C/[S+](C)[O-])cc(=O)c2c1` (racemic) were, in that order, 1900 nM, 2400 nM, 9100 nM, above 100 µM and 9 µM (≈ 2.88 µg/mL).
The corresponding values for `C[S+]([O-])/C=C/c1cc(=O)c2cc(Br)ccc2o1` (racemic) are 1000 nM, 1100 nM, 4500 nM, 47 µM (≈ 14.7 µg/mL) and 2.5 µM (≈ 0.783 µg/mL).
Consider `COc1cccc2oc(/C=C/[S+](C)[O-])cc(=O)c12` (racemic), for which the 50% inhibitory concentration (IC50) in assay [1] is 3800 nM; in assay [2] it was 3800 nM; in assay [5] it was above 10000 nM. Further, the MIC90 in assay [3] is above 100 µM; in assay [4], 43 µM (≈ 11.4 µg/mL).
Take `CC(=O)Oc1ccc2oc(/C=C/[S+](C)[O-])cc(=O)c2c1` (racemic): the IC50 is 2500 nM in assay [1], 4100 nM in assay [2] and above 10000 nM in assay [5]. Moreover, the MIC90 in assay [3] was above 100 µM; in assay [4] it was 11 µM (≈ 3.22 µg/mL).
The corresponding values for `CC(C)Oc1ccc2oc(/C=C/[S+](C)[O-])cc(=O)c2c1` (racemic) are 1400 nM, 1500 nM, 8000 nM, 84 µM (≈ 24.6 µg/mL) and 11.1 µM (≈ 3.25 µg/mL).
With `C[S+]([O-])/C=C/c1cc(=O)c2cc(C#N)ccc2o1` (racemic), the 50% inhibitory concentration (IC50) in assay [1], in assay [2] and in assay [5] was above 10000 nM in each case. Also, the MIC90 in assay [3] was above 100 µM; in assay [4], 5.6 µM (≈ 1.45 µg/mL).
As for `C[S+]([O-])/C=C/c1oc2ccccc2c(=O)c1Cc1ccccc1` (racemic), the IC50 in assay [1] stood at 1200 nM; in assay [2] it was 1300 nM; in assay [5] it was 5100 nM. The MIC90 in assay [3] is above 100 µM; in assay [4], 2.9 µM (≈ 0.941 µg/mL).
With `C[S+]([O-])/C=C/c1cc(=O)c2cc(F)ccc2o1` (racemic), the values for the IC50 in assay [1], in assay [2] and in assay [5] were 1700 nM, 2100 nM and 7000 nM, respectively. For the same compound, the MIC90 is above 100 µM in assay [3] and 5.3 µM (≈ 1.34 µg/mL) in assay [4].
The corresponding values for `CCCCCOc1ccc2oc(/C=C/[S+](C)[O-])cc(=O)c2c1` (racemic) are 1700 nM, 1600 nM, 6600 nM, 7 µM (≈ 2.24 µg/mL) and 4.3 µM (≈ 1.38 µg/mL).
With `CC(C)COc1ccc2oc(/C=C/[S+](C)[O-])cc(=O)c2c1` (racemic), the IC50 came to 1200 nM in assay [1], 1100 nM in assay [2] and 5000 nM in assay [5]. The values for the MIC90 in assay [3] and in assay [4] were 13.4 µM (≈ 4.11 µg/mL) and 5.7 µM (≈ 1.75 µg/mL), respectively.
The corresponding values for `Cc1c(/C=C/[S+](C)[O-])oc2ccccc2c1=O` (racemic) are 2100 nM, 1500 nM, 7200 nM, above 100 µM and 20 µM (≈ 4.97 µg/mL).
The like results for `COc1cccc2c(=O)cc(/C=C/[S+](C)[O-])oc12` (racemic) were, in that order, 1900 nM, 2200 nM, 9000 nM, above 100 µM and 11 µM (≈ 2.91 µg/mL).
The corresponding values for `CCOc1ccc2oc(/C=C/[S+](C)[O-])cc(=O)c2c1` (racemic) are 2000 nM, 1500 nM, 4900 nM, 67 µM (≈ 18.6 µg/mL) and 11.4 µM (≈ 3.17 µg/mL).
As for `CCCOc1ccc2oc(/C=C/[S+](C)[O-])cc(=O)c2c1` (racemic), the IC50 in assay [1] was found to be 1900 nM; in assay [2], 1100 nM; in assay [5] it was 6200 nM. Moreover, the figures for the MIC90 in assay [3] and in assay [4] were 39 µM (≈ 11.4 µg/mL) and 11 µM (≈ 3.22 µg/mL), respectively.
In the case of `CCCC(=O)Oc1ccc2oc(/C=C/[S+](C)[O-])cc(=O)c2c1` (racemic), the IC50 is 1500 nM in assay [1], 2200 nM in assay [2] and 8700 nM in assay [5]. Also, the MIC90 was above 100 µM in assay [3] and 7.2 µM (≈ 2.31 µg/mL) in assay [4].
On to `Cc1ccc2oc(/C=C/[S+](C)[O-])cc(=O)c2c1` (racemic), for which the IC50 in assay [1] stood at 1800 nM; in assay [2], 1700 nM; in assay [5], 7000 nM. Moreover, the MIC90 in assay [3] is above 100 µM; in assay [4] it was 10 µM (≈ 2.48 µg/mL).
For the compound `CCCCOc1ccc2oc(/C=C/[S+](C)[O-])cc(=O)c2c1` (racemic), the 50% inhibitory concentration (IC50) in assay [1] came to 1100 nM; in assay [2], 1400 nM; in assay [5], 4800 nM. For the same compound, the MIC90 in assay [3] came out at 14.1 µM (≈ 4.32 µg/mL); in assay [4], 5.4 µM (≈ 1.65 µg/mL).
The like results for `C[S+]([O-])/C=C/c1cc(=O)c2cc(OC(=O)C(C)(C)C)ccc2o1` (racemic) were, in that order, 1000 nM, 1600 nM, 8000 nM, 71 µM (≈ 23.7 µg/mL) and 10 µM (≈ 3.34 µg/mL).
As for `CCC(=O)Oc1ccc2oc(/C=C/[S+](C)[O-])cc(=O)c2c1` (racemic), the half-inhibitory concentration (IC50) came out at 2100 nM in assay [1], 2400 nM in assay [2] and 9000 nM in assay [5]. For the same compound, the MIC90 in assay [3] is above 100 µM; in assay [4], 10 µM (≈ 3.06 µg/mL).
Regarding `CC(C)CCOc1ccc2oc(/C=C/[S+](C)[O-])cc(=O)c2c1` (racemic), the IC50 in assay [1] was 850 nM; in assay [2], 1000 nM; in assay [5] it was 4100 nM. Moreover, the MIC90 turned out to be 8.4 µM (≈ 2.69 µg/mL) in assay [3] and 2.8 µM (≈ 0.897 µg/mL) in assay [4].
The like results for `C[S+]([O-])/C=C/c1cc(=O)c2cc3c(cc2o1)OCO3` (racemic) were, in that order, 2000 nM, 2100 nM, 6000 nM, above 100 µM and 39 µM (≈ 10.9 µg/mL).
The like results for `CC(C)CC(=O)Oc1ccc2oc(/C=C/[S+](C)[O-])cc(=O)c2c1` (racemic) were, in that order, 1700 nM, 2300 nM, 6100 nM, 72 µM (≈ 24.1 µg/mL) and 5.1 µM (≈ 1.71 µg/mL).
The corresponding values for `C[S+]([O-])/C=C/c1cc(=O)c2c(ccc3ccccc32)o1` (racemic) are 880 nM, 940 nM, 4300 nM, above 100 µM and 18 µM (≈ 5.12 µg/mL).
For the compound `Cc1cccc2oc(/C=C/[S+](C)[O-])cc(=O)c12` (racemic), the results for the IC50 in assay [1], in assay [2] and in assay [5] were 1900 nM, 1300 nM and 5500 nM, respectively. The MIC90 in assay [3] was above 100 µM; in assay [4] it was 23 µM (≈ 5.71 µg/mL).
In the case of `Cc1cccc2c(=O)cc(/C=C/[S+](C)[O-])oc12` (racemic), the concentration for half-maximal inhibition (IC50) in assay [1] amounted to 2200 nM; in assay [2] it was 1700 nM; in assay [5], 6800 nM. The MIC90 in assay [3] is above 100 µM; in assay [4] it was 10 µM (≈ 2.48 µg/mL).
As to `C[C@@H]1[C@H](O)[C@@H](C)/C=C/C=C/C=C/C=C/C=C/C=C/C=C/[C@H](O[C@@H]2O[C@H](C)[C@@H](O)[C@H](N)[C@@H]2O)C[C@@H]2O[C@](O)(C[C@@H](O)C[C@@H](O)[C@H](O)CC[C@@H](O)C[C@@H](O)CC(=O)O[C@H]1C)C[C@H](O)[C@H]2C(=O)O` [AMPHOTERICIN B], the MIC90 in assay [3] stood at 1.4 µM (≈ 1.29 µg/mL).
`COc1cc([C@@H]2c3cc4c(cc3[C@@H](O[C@@H]3O[C@@H]5CO[C@@H](C)O[C@H]5[C@H](O)[C@H]3O)[C@H]3COC(=O)[C@H]23)OCO4)cc(OC)c1O` [ETOPOSIDE]: the IC50 in assay [1] is 47000 nM; in assay [2], 4800 nM; in assay [5], 570 nM.
For the compound GENTAMICIN, the MIC90 in assay [4] was determined as 0.09 µM.
